Measurements from patent publication US20260258373A1, “PEPTIDE TAGS FOR PHAGE IMAGING” (priority 2022, published 2026).
Like-named read-outs stand apart in the source and are kept apart here. Cy5 = cyanine 5 dye

Legend:
Good Vibes phage (GV) [1] = assay: Monoclonal phage ELISA (cross-reactivity / validation) against GV; type: binding; conditions: peptide displayed on monoclonal phage; cross-reactivity assay
Protocol: (§1) A Nunc Maxisorp flat-bottom 96-well plate was coated with 6×10^9 pfu GV per well (in TBS, pH 8) and incubated overnight at 4° C. Plates coated with 2% (w/v) bovine serum albumin (BSA) were used as negative controls. Next day, the plates were blocked with 2% (w/v) BSA at room temperature for 1 h, shaking at 800 rpm. The plates were then washed with 0.1% TBST (3×1 min) before adding 20 μL of amplified phage from each biopanning cycle to each well in 5% (w/v) BSA. After further incubation at room temperature for 1 h, shaking at 800 rpm, the plates were washed with 0.5% TBST (3×5 min) before adding 100 μL horseradish peroxidase (HRP)-conjugated anti-M13 monoclonal antibody (Abcam ab50370, diluted 1:500) and incubating at room temperature for 1 h, shaking at 800 rpm. After further washes in 0.5% TBST (3×5 min), Applicant added 100 μL of the tetramethylbenzidine (TMB) substrate (Thermo Fisher Scientific) to each well. The plates were incubated in the dark for 10 min and the absorbance was measured at 370 nm using an Infinite 200 Rx plate reader (Tecan Life Sciences) with 25 flashes in 96-well flat-bottom plate mode.
The protocol was similar to the polyclonal ELISA. […] Monoclonal phages differing in absorbance between GV and BSA by at least 0.3 units were isolated for DNA sanger sequencing (Eurofins Genomics). […]

Matera (MAT) = assay: Monoclonal phage ELISA (cross-reactivity / validation) against MAT; type: binding, Matera (family Myoviridae); conditions: peptide displayed on monoclonal phage; cross-reactivity assay
[2] = system: cowpea mosaic virus (CPMV); assay: Cross-reactivity ELISA against CPMV; type: binding; conditions: peptide displayed on monoclonal phage; cross-reactivity assay
Protocol: as §1
(§2) The protocol was similar to the polyclonal ELISA. Applicant coated wells with 10 μg cowpea mosaic virus (CPMV) or 1010 GV particles to assess their binding activity.

BSA = BSA (Bos taurus, UniProt P02769); assay: Cross-reactivity ELISA against BSA (negative control); type: binding, bovine; conditions: peptide displayed on monoclonal phage, cross-reactivity assay
Protocol: as §1, §2

Good Vibes phage (GV) [3] = assay: GVBP-Cy5 ELISA; type: binding; conditions: GV 0.1, 1, 10 or 63 μg coated; 0.05 μg peptide; fluorescence 647/665 nm; FIG. 5C
Protocol: Applicant then added 0.05 μg of GVBP-Cy5 peptide and incubated for 1 h. […] The fluorescence was measured using an Infinite 200 Rx plate reader with excitation and emission wavelengths of 647 and 665 nm, respectively, and a gain of 50.

[4] = system: GV bound to P. aeruginosa cells; assay: Flow cytometry of GVBP-Cy5, cells with phages; type: binding, Good Vibes phage on Pseudomonas aeruginosa
Protocol: (§3) An overnight culture of P. aeruginosa was diluted 100-fold in fresh medium. The culture was incubated at 37° C. to reach OD600~0.2 before adding ~10^11 pfu of GV to the cells and incubating at 37° C. for 15 min. The cells were pelleted by centrifugation (6000 g, 15 min, at room temperature), washed once with 800 μL TM buffer (10 mM Tris base, 5 μM CaCl2), 10 mM MgSO4, pH 7.4) and resuspended in 200 μL of the same buffer. Applicant added GVBP-Cy5 (2×10^13 units) and incubated the mixture for 15 min at room temperature before centrifugal washing three times with 0.1% PBST (6000 g, 5 min, at room temperature). The pellet was resuspended in 200 μL TM buffer and the binding of GVBP-Cy5 to GV was analyzed using an Accuri C6 Plus flow cytometer (BD Biosciences). A total of 30,000 events were collected for each analysis.

P. aeruginosa cells = assay: Flow cytometry of GVBP-Cy5, cells without phages; type: binding, Pseudomonas aeruginosa
Protocol: as §3

Good Vibes phage (GV) [5] = conditions: GV 1, 10 or 65 μg coated; 0.01 μg peptide; absorbance 450 nm; FIG. 5B
Protocol: GV (1, 10 or 65 μg) was coated onto Nunc Maxisorp flat-bottom 96-well plates and incubated for 1 h at room temperature, shaking at 400 rpm. All incubation and washing steps were carried out at room temperature, shaking at 400 rpm, unless otherwise stated. The wells were blocked for 1 h with 300 μL 5% (w/v) BSA followed by washing once with 0.1% PBST for 5 min. Applicant then added 0.01 μg of GVBP-biotin peptide to the wells and incubated for 1 h. The wells were then washed three times with 0.1% PBST for 5 min each before adding streptavidin HRP conjugate (ab7403) diluted 1:10,000 and incubating for 30 min. The wells were washed another three times as above before adding 100 μL of TMB substrate and incubating for 5-10 min in the dark. The reaction was stopped by adding 50 μL 2M H2SO4 and the absorbance was measured at 450 nm using an Infinite 200 Rx plate reader as described above.

Good Vibes phage (GV) [6] = assay: competitive ELISA, GVER2738 against GVER2738_SYBR on GV-coated wells and on BSA-coated wells

Row | Molecule | ELISA signal against GV (Good Vibes phage (GV) [1]) | ELISA signal against MAT (Matera (MAT)) | ELISA signal against CPMV [2] | ELISA signal against BSA (BSA) | further results
1 | WDLPPIGRLSGN [H2N-WDLPPIGRLSGN—CO2H] | strong signal | strong signal | not against CPMV or BSA | not against CPMV or BSA | 
2 | THLPPIMRNLQF | strong signal | strong signal | not against CPMV or BSA | not against CPMV or BSA | 
3 | H2N-WDLPPIGRLSGNGGGSK/Cy5/—CO2H (H-WDLPPIGRLSGNGGGSK(Cy5)-OH; also: C-terminal Cy5, attachment not given here) [GVBP-Cy5] |  |  |  |  | intensity of signal of bound peptide with increasing amounts of GV coating the plates (Good Vibes phage (GV) [3]): became stronger; fluorescent signal (median fluorescence intensity, MFI) ([4]; cells and phages plus GVBP-Cy5, FIG. 6B): strongest fluorescent signal; APC+ shift ([4]; population containing both P. aeruginosa cells and GV phages, in the presence of GVBP-Cy5, FIG. 6A panel iv): 15.4%; binding to GV by flow cytometry ([4]; summary statement): significant binding; fluorescent signal (median fluorescence intensity, MFI) (P. aeruginosa cells; in the absence of phage, FIG. 6B): weaker signal; APC+ shift (P. aeruginosa cells; population containing P. aeruginosa cells without phages, peptide added, FIG. 6A panel iii): 7.6%
4 | H2N-WDLPPIGRLSGNGGGSK/biotin/—CO2H [GVBP-biotin] |  |  |  |  | intensity of signal of bound peptide with increasing amounts of GV coating the plates (Good Vibes phage (GV) [5]): became stronger
5 | WDLPPIGRLSGN (modifications not checked) [monoclonal phage GVER2738 displaying the peptide …] |  |  |  |  | fold of KD value, GV against BSA (Good Vibes phage (GV) [6]): 12 times
